GI50 and TGI data for nine compounds are collected here from PubChem BioAssay (NCI).

Where “and” joins values, the source holds several entries; their conditions need not be identical. Identical values can stand only once.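 Five compound concentrations were applied to cells in 96-well plates for 48 hours; endpoints were derived by simple linear interpolation of the resulting dose-response curve. At the GI50, growth is halved. TGI denotes the concentration required for complete inhibition of growth.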

Some test systems named below: HS 578T breast; K-562 leukemia; M14 melanoma; MOLT-4 leukemia; NCI-H460 lung; SF-539 CNS; SK-MEL-28 melanoma; SNB-19 CNS; SNB-75 CNS; SR leukemia.
What all share (assay): NCI tumour cell line growth inhibition, 48 h

As for `NC(=O)Oc1cc(OC(N)=O)cc(N(CCCl)CCCl)c1`, the GI50 with HS 578T breast was 23200 nM; in the assay with K-562 leukemia, 10 µM; with M14 melanoma it was 5.74 µM; with MOLT-4 leukemia it was 2.18 µM; in the assay with NCI-H460 lung it was 0.748 µM; in the assay with SF-539 CNS it was 1.65 µM. The GI50 with SK-MEL-28 melanoma is 15.7 µM; in the assay with SNB-19 CNS, 10.6 µM; in the assay on SNB-75 CNS, 2710 nM; in the assay with SR leukemia, 1.04 µM. The TGI in the assay with HS 578T breast was 76.3 µM; in the assay with K-562 leukemia, greater than 100 µM; in the assay with M14 melanoma, 30.9 µM; with MOLT-4 leukemia, greater than 100 µM; in the assay on NCI-H460 lung, 26.9 µM; with SF-539 CNS, 5.96 µM. The TGI in the assay on SK-MEL-28 melanoma is 65.3 µM; with SNB-19 CNS, greater than 100 µM; in the assay with SNB-75 CNS it was 25.3 µM; in the assay on SR leukemia, greater than 100 µM.
As for `O=C1C=CC2(C=C1)CCN=c1c(O)c3c(c(O)c12)=NC=N3`, the TGI in the assay on HS 578T breast was 71.4 µM and > 100 µM; in the assay on K-562 leukemia, 42.6 µM and > 100 µM; with M14 melanoma it was 23.7 µM and > 100 µM; in the assay with MOLT-4 leukemia, greater than 100 µM; with NCI-H460 lung it was 30 µM and > 100 µM; with SF-539 CNS, 26.9 µM and > 100 µM. Also, the TGI was 29.4 µM and > 100 µM in the assay with SK-MEL-28 melanoma; 27.1 µM with SNB-19 CNS; 35.2 µM and > 100 µM in the assay on SNB-75 CNS; greater than 100 µM in the assay on SR leukemia. The GI50 is 11.3 µM and > 100 µM in the assay on M14 melanoma; 21.7 µM and > 100 µM with MOLT-4 leukemia; 12.2 µM and > 100 µM in the assay on NCI-H460 lung; 13.8 µM and > 100 µM with SF-539 CNS; 15.6 µM and > 100 µM in the assay with SK-MEL-28 melanoma; 17800 nM and > 100000 nM in the assay on SNB-75 CNS. For the same compound, in the assay with SR leukemia, the GI50 is 10.6 µM and 93 µM.
Consider `O=C(/C=C\Sc1nccc(C(F)(F)F)n1)c1ccc(Br)cc1`, for which the GI50 was 40500 nM with HS 578T breast; 15 µM with K-562 leukemia; 17.9 µM with M14 melanoma; 4.44 µM in the assay with MOLT-4 leukemia; greater than 100 µM in the assay on NCI-H460 lung; 23.3 µM in the assay with SF-539 CNS. Also, the GI50 in the assay with SK-MEL-28 melanoma is 16 µM; in the assay with SNB-19 CNS, 36.9 µM; in the assay with SNB-75 CNS, 28900 nM; in the assay on SR leukemia, 11.1 µM. Moreover, the TGI in the assay on HS 578T breast is greater than 100 µM; in the assay on K-562 leukemia it was 44.1 µM; in the assay on M14 melanoma it was 35.5 µM; in the assay on MOLT-4 leukemia, 16.2 µM; in the assay with NCI-H460 lung, greater than 100 µM; in the assay with SF-539 CNS, 69.4 µM. The TGI with SK-MEL-28 melanoma is 32.1 µM; with SNB-19 CNS it was greater than 100 µM; in the assay on SNB-75 CNS, greater than 100 µM; with SR leukemia it was 26.3 µM.
For the compound `Cn1cc(C2=C(c3c4n(c5ccccc35)CCC(CN)CC4)C(=O)NC2=O)c2ccccc21` (configuration not stated), the GI50 is 2560 nM in the assay on HS 578T breast; 4.72 µM in the assay on K-562 leukemia; 4.29 µM in the assay with M14 melanoma; 5.27 µM in the assay with MOLT-4 leukemia; 4.21 µM in the assay on NCI-H460 lung; 3.91 µM in the assay on SF-539 CNS. Besides, the GI50 with SK-MEL-28 melanoma was 4.17 µM; with SNB-19 CNS it was 4.52 µM; in the assay on SNB-75 CNS, 1090 nM; with SR leukemia it was 5.14 µM. For the same compound, the TGI turned out to be 8.5 µM in the assay with HS 578T breast; 11.9 µM in the assay on K-562 leukemia; 8.26 µM in the assay on M14 melanoma; 13.3 µM with MOLT-4 leukemia; 8.19 µM in the assay with NCI-H460 lung; 7.35 µM with SF-539 CNS. Further, the TGI is 8.06 µM in the assay with SK-MEL-28 melanoma, 10.7 µM in the assay on SNB-19 CNS, 4.9 µM with SNB-75 CNS and 16.2 µM in the assay with SR leukemia.
In the case of `O=C1/C(=C/c2ccc(Cl)cc2)CN(C(=O)C(Cl)Cl)C/C1=C\c1ccc(Cl)cc1`, the GI50 with HS 578T breast was 312 nM; with K-562 leukemia it was 0.0469 µM; in the assay on M14 melanoma, 0.242 µM; in the assay with MOLT-4 leukemia, 0.273 µM; in the assay with NCI-H460 lung it was 0.274 µM; in the assay with SF-539 CNS, 0.194 µM. Moreover, the GI50 is 0.227 µM in the assay with SK-MEL-28 melanoma, 0.177 µM in the assay with SNB-19 CNS, 161 nM in the assay with SNB-75 CNS and 0.0395 µM in the assay with SR leukemia. The TGI is 2.33 µM in the assay on HS 578T breast; greater than 68.9 µM with K-562 leukemia; 0.749 µM in the assay with M14 melanoma; greater than 28.1 µM with MOLT-4 leukemia; 0.822 µM in the assay on NCI-H460 lung; 0.467 µM with SF-539 CNS. Also, the TGI with SK-MEL-28 melanoma was 0.517 µM; in the assay with SNB-19 CNS, 0.576 µM; in the assay on SNB-75 CNS, 0.509 µM; with SR leukemia, greater than 40.1 µM.
As to `O=C(O)CC1(C(=O)O)CCCCC1`, the TGI in the assay with HS 578T breast, in the assay on K-562 leukemia, in the assay on M14 melanoma, in the assay on MOLT-4 leukemia, in the assay on NCI-H460 lung and with SF-539 CNS was greater than 100 µM each time. Further, the TGI in the assay on SK-MEL-28 melanoma, with SNB-19 CNS, in the assay on SNB-75 CNS and with SR leukemia was greater than 100 µM throughout.
Take `CC(=O)OCC1OC(S[As](C)C)C(OC(C)=O)C1OC(C)=O` (configuration not stated): the GI50 in the assay on HS 578T breast is 319 nM; in the assay on K-562 leukemia, 0.0721 µM; with M14 melanoma, 0.193 µM; in the assay with MOLT-4 leukemia it was 0.177 µM; in the assay with NCI-H460 lung, 2.36 µM; in the assay with SF-539 CNS it was 0.226 µM. The GI50 with SK-MEL-28 melanoma is 0.446 µM; in the assay on SNB-19 CNS, 9.06 µM; in the assay with SNB-75 CNS it was 511 nM; in the assay on SR leukemia, 0.025 µM. Besides, the TGI with HS 578T breast was found to be 0.841 µM; in the assay on K-562 leukemia, 0.618 µM; in the assay on M14 melanoma, 0.726 µM; in the assay on MOLT-4 leukemia, 0.765 µM; with NCI-H460 lung, 14.4 µM; with SF-539 CNS, 0.907 µM. Moreover, the TGI with SK-MEL-28 melanoma stood at 2.73 µM; in the assay on SNB-19 CNS, 29.5 µM; in the assay on SNB-75 CNS it was 1.99 µM; in the assay with SR leukemia, 0.29 µM.
Turning to `O=C(O)c1cccc(CC(Br)C(=O)O)c1` (configuration not stated), the TGI in the assay on HS 578T breast, in the assay on K-562 leukemia, in the assay on M14 melanoma, in the assay on MOLT-4 leukemia, in the assay on NCI-H460 lung and with SF-539 CNS was greater than 100 µM each time. Moreover, the TGI in the assay with SK-MEL-28 melanoma, with SNB-19 CNS, in the assay with SNB-75 CNS and in the assay with SR leukemia was greater than 100 µM in each case.
For `COC(=O)C#Cc1ccc([N+](=O)[O-])cc1`, the TGI with HS 578T breast is 47.5 µM; with K-562 leukemia, 12.9 µM; in the assay on M14 melanoma, 4.96 µM; in the assay on MOLT-4 leukemia, 2.88 µM; with NCI-H460 lung, 38.7 µM; in the assay on SF-539 CNS, 4.08 µM. Besides, the TGI is 4.13 µM in the assay with SK-MEL-28 melanoma, 8.47 µM in the assay on SNB-19 CNS, 7.34 µM in the assay with SNB-75 CNS and 1.07 µM in the assay on SR leukemia.
